Values joined by “and” are separate entries in the source; they are usually repeats but may differ in a detail not shown here. Identical values can stand only once.
Columns and labels:
[1] = test system: human primary hepatocytes; assay: Metabolic disposition of [^14C]-Compound 1 and [^14C]-2′-C-methyl guanosine in human primary hepatocytes (incubation medium, cellular extracts, nucleotide levels); format: in vitro ADME; conditions: for Major metabolites observed in cellular extracts (% of total radioactivity): human hepatocytes Hu775, 1 μM [^14C]-2′-C-methyl guanosine
Description: (§1) Primary hepatocytes: Freshly isolated cells from animal and human liver were obtained in suspension on ice. Cells were pelleted by centrifugation at 70-75×g (rat) or 95-90×g (monkey and human) and resuspended at 0.8 million cells per mL of platting medium (William's E supplemented with 5% FBS, 0.5% penicillin-streptomycin, 1% L-glutamine, 4 μg/mL insulin and 1 μM dexamethasone). Multi-well collagen I-coated plates (rat tail collagen type I; 12- or 6-well) were then seeded by addition of 1 mL (12-well; 0.8 million cells/well) or 2 mL (6-well; 1.6 million cells/well) of cell suspension. The plates were gently shaken to evenly distribute the cells and placed in an incubator at 37° C. for approximately 4 to 6 hours to allow cells to attach. Once cells were attached, the platting medium was removed and replaced with hepatocyte culture medium (William's E supplemented with penicillin-streptomycin, 1% L-glutamine, 1% insulin-transferrin-selenium and 0.1 μM dexamethasone). Cells were left overnight in an incubator at 37° C. to acclimatize to culture and the medium.
(§2) Hepatocyte incubations with radiolabeled Compound 1 and 2′-C-methyl guanosine, both labeled in the C-8 position of the guanine moiety, were conducted at a final volume of 2.0 mL hepatocyte culture medium/well ([…]). Culture medium from overnight incubation of cells was removed and replaced with fresh medium, pre-warmed to 37° C., containing 1 or 10 μM [^14C]-Compound 1 ([…]) or [^14C]-2′-C-methyl guanosine (127 DPM/μmol) from a stock solution in DMSO (final DMSO concentration was 0.1%) or 50% ethanol (final ethanol concentration was 0.2%). After 1, 4, 8 and 24 hours, 0.5-1.0 mL of incubation medium was removed and stored at −20° C. until analysis (described below). The remaining medium was discarded and cell monolayers were carefully washed two times with ice-cold PBS. Following the last wash, all PBS was carefully removed and 1.0 mL of extraction solution (ice-cold 70% methanol) added. Cells were scrapped off and suspended in the extraction solution, transferred to 2 mL polypropylene microfuge tubes and intracellular contents extracted overnight at −20° C.
(§3) Preliminary identification of putative metabolites was conducted by comparing the retention time of observed metabolites in incubation medium and cellular extracts with retention times obtained with chemically synthesized standards using the chromatography conditions described below. Further identification of 2′-C-methyl guanosine nucleotides (mono-, di- and triphosphate) was carried out by incubating cellular extract samples with alkaline phosphatase (10 units for 60 min at 37° C.) and comparing the HPLC retention times of the resulting nucleosides with that of authentic 2′-C-methyl guanosine.
(§4) Cellular extracts were prepared by centrifugation at 16,000 RCF using an Eppendorf microcentrifuge (Eppendorf, Model 5415D) for 10 min to remove cellular debris. An aliquot of 5-10 μL of the supernatant was added to 5 mL of EcoLite™ (MP, Irvine, Calif.) liquid scintillation cocktail and radioactivity measured by liquid scintillation counting (LSC) using a Beckman Coulter LS6500 multipurpose liquid scintillation counter (Beckman Instruments, Fullerton, Calif.). The remaining sample was then dried using a Labconco refrigerated centrivap concentrator (Labconco, Kansas City, Mo.). Dry extracts were reconstituted in 120 μL of HPLC-grade water and centrifuged at 16,000 RCF using an Eppendorf microcentrifuge for 10 min. Prior to HPLC analysis (described below), radioactivity of the concentrated extracts was measured by LSC using 5 μL aliquots. Extraction recovery was then determined by comparing total radioactivity in extracts before and after drying. The remaining extract was then analyzed by HPLC with online radioactivity detection using a Flow Scintillation Analyzer Radiomatic™ 515TR. Radioactivity in the separated components was quantified by integrating the peaks using Flo-One™ Software (Perkin Elmer Life Sciences). […]

[2] = test system: monkey primary hepatocytes; assay: Metabolic disposition of [^14C]-Compound 1 and [^14C]-2′-C-methyl guanosine in monkey primary hepatocytes (incubation medium, cellular extracts, nucleotide levels); format: in vitro ADME, Cynomolgus monkey; conditions: for Major metabolites observed in cellular extracts (% of total radioactivity): 10 μM [^14C]-2′-C-methyl guanosine
Description: as §1, §2, §3, §4

[3] = human hepatocytes (Hu759, Hu775), 10 μM [^14C]-Compound 1, 1 h
[4] = human hepatocytes (Hu759, Hu775), 10 μM [^14C]-Compound 1, 8 h
[5] = human hepatocytes (Hu759, Hu775), 10 μM [^14C]-Compound 1, 24 h
[6] = human hepatocytes (Hu775), 1 μM [^14C]-Compound 1, 0 h
[7] = human hepatocytes (Hu775), 1 μM [^14C]-Compound 1, 1 h
[8] = human hepatocytes (Hu775), 1 μM [^14C]-Compound 1, 8 h
[9] = human hepatocytes (Hu775), 1 μM [^14C]-Compound 1, 24 h
[10] = human hepatocytes (lots Hu759, Hu775), 10 μM [^14C]-Compound 1, 0 h
[11] = human hepatocytes (lots Hu759, Hu775), 10 μM [^14C]-Compound 1, 4 h
[12] = human hepatocytes (lots Hu759, Hu775), 10 μM [^14C]-Compound 1, 8 h
[13] = human hepatocytes (lots Hu759, Hu775), 10 μM [^14C]-Compound 1, 24 h
[14] = monkey hepatocytes (Cy230, Cy234), 10 μM [^14C]-Compound 1, 1 h
[15] = monkey hepatocytes (Cy230, Cy234), 10 μM [^14C]-Compound 1, 8 h
[16] = monkey hepatocytes (Cy230, Cy234), 10 μM [^14C]-Compound 1, 24 h
[17] = monkey hepatocytes (Cy234), 10 μM [^14C]-Compound 1, 4 h
[18] = monkey hepatocytes (lot Cy234), 10 μM [^14C]-Compound 1, 4 h
[19] = monkey hepatocytes (lots Cy230, Cy234), 10 μM [^14C]-Compound 1, 0 h
[20] = monkey hepatocytes (lots Cy230, Cy234), 10 μM [^14C]-Compound 1, 8 h
[21] = monkey hepatocytes (lots Cy230, Cy234), 10 μM [^14C]-Compound 1, 24 h

Row | Compound | metabolites observed in cellular extracts (% of total radioactivity) [1, 3] | metabolites observed in cellular extracts (% of total radioactivity) [1, 4] | metabolites observed in cellular extracts (% of total radioactivity) [1, 5] | metabolites observed in medium (% of total radioactivity) [1, 6] | metabolites observed in cellular extracts (% of total radioactivity) [1, 7] | metabolites observed in medium (% of total radioactivity) [1, 7] | metabolites observed in cellular extracts (% of total radioactivity) [1, 8] | metabolites observed in medium (% of total radioactivity) [1, 8] | metabolites observed in cellular extracts (% of total radioactivity) [1, 9] | metabolites observed in medium (% of total radioactivity) [1, 9] | metabolites observed in medium (% of total radioactivity) [1, 10] | metabolites observed in medium (% of total radioactivity) [1, 11] | metabolites observed in medium (% of total radioactivity) [1, 12] | metabolites observed in medium (% of total radioactivity) [1, 13] | metabolites observed in cellular extracts (% of total radioactivity) [2, 14] | metabolites observed in cellular extracts (% of total radioactivity) [2, 15] | metabolites observed in cellular extracts (% of total radioactivity) [2, 16] | metabolites observed in cellular extracts (% of total radioactivity) [2, 17] | metabolites observed in medium (% of total radioactivity) [2, 18] | metabolites observed in medium (% of total radioactivity) [2, 19] | other results
1 | C[C@@]1(O)[C@H](O)[C@@H](CO)O[C@H]1n1cnc2c(=O)[nH]c(N)nc21 [2′-C-methyl guanosine, 9-(2-C-methyl-β-D-ribofuranosyl)guanine, reference compound] | 3.69% and 3.75% | 7.52% and 5.89% | 10.3% and 9.06% | BLD^a | BLD^a | BLD | 4.34% | 9.20% and 9.22% | 9.05% | 39% and 38.7% | BLD^b and BLD | 1.7% and 1.6% | 4.6% and 7% | 22.1% and 29% | 1.68% and 3.04% | 0.95% and 2.06% | 2.31% and 1.25% | 1.35% | 6.8% | BLD^c and BLD | metabolites observed in cellular extracts (% of total radioactivity) ([1]; human hepatocytes (Hu759, Hu775), 10 μM [^14C]-2′-C-methyl guanosine, 1 h): 97.1% and 94.9%; metabolites observed in cellular extracts (% of total radioactivity) ([1]; human hepatocytes (Hu759, Hu775), 10 μM [^14C]-2′-C-methyl guanosine, 4 h): 87.3% and 77.3%; metabolites observed in cellular extracts (% of total radioactivity) ([1]; human hepatocytes (Hu759, Hu775), 10 μM [^14C]-2′-C-methyl guanosine, 8 h): 73.9% and 61.4%; metabolites observed in cellular extracts (% of total radioactivity) ([1]; human hepatocytes (Hu759, Hu775), 10 μM [^14C]-2′-C-methyl guanosine, 24 h): 52.4% and 40.2%; metabolites observed in cellular extracts (% of total radioactivity) ([1]; human hepatocytes (Hu759, Hu775), 10 μM [^14C]-Compound 1, 4 h): 4.20% and 3.10%; metabolites observed in medium (% of total radioactivity) ([1]; human hepatocytes (lots Hu759, Hu775), 10 μM [^14C]-Compound 1, 1 h): BLD and BLD^a; Major metabolites observed in cellular extracts (% of total radioactivity) ([1]; 1 h): 94.6 % of total radioactivity; Major metabolites observed in cellular extracts (% of total radioactivity) ([1]; 8 h): 65.8 % of total radioactivity; Major metabolites observed in cellular extracts (% of total radioactivity) ([1]; 24 h): 41.3 % of total radioactivity; metabolites observed in medium (% of total radioactivity) [2, 20]: 10.4% and 14.8%; metabolites observed in medium (% of total radioactivity) [2, 21]: 48.8% and 35.6%; Major metabolites observed in cellular extracts (% of total radioactivity) ([2]; monkey hepatocytes Cy230, 1 h): 96.4 % of total radioactivity; Major metabolites observed in cellular extracts (% of total radioactivity) ([2]; monkey hepatocytes Cy230, 8 h): 77.3 % of total radioactivity; Major metabolites observed in cellular extracts (% of total radioactivity) ([2]; monkey hepatocytes Cy230, 24 h): 65.0 % of total radioactivity; Major metabolites observed in cellular extracts (% of total radioactivity) ([2]; monkey hepatocytes Cy234, 1 h): 86.9 % of total radioactivity; Major metabolites observed in cellular extracts (% of total radioactivity) ([2]; monkey hepatocytes Cy234, 4 h): 57.9 % of total radioactivity; Major metabolites observed in cellular extracts (% of total radioactivity) ([2]; monkey hepatocytes Cy234, 8 h): 45.8 % of total radioactivity; Major metabolites observed in cellular extracts (% of total radioactivity) ([2]; monkey hepatocytes Cy234, 24 h): 29.0 % of total radioactivity
2 | C[C@@]1(O)[C@H](O)[C@@H](COP(=O)(O)NCc2ccccc2)O[C@H]1n1cnc2c(=O)[nH]c(N)nc21 [Compound 2, [(2R)-2-methyl-β-D-ribofuranosyl]guanine-N-benzylaminyl-5′-monophosphate] | 6.50% and 2.30% | BLD | BLD | 2.22% | 4.94% | BLD | BLD | 2.27% | BLD | 1.7% and 1.72% | 2.7% and 1.1% | 1.8% and 0.8% | 2.6% and 0.6% | 2.7% and 0.7% | 3.20% and 7.96% | BLD^c and BLD | BLD | 1.25% | 1.1% | 1.0% and 6.2% | metabolites observed in medium (% of total radioactivity) ([2]; monkey hepatocytes (lots Cy230, Cy234), 10 μM [^14C]-Compound 1, 1 h): 1.9% and 0.6%; metabolites observed in medium (% of total radioactivity) [2, 20]: 8.5% and 1.8%; metabolites observed in medium (% of total radioactivity) [2, 21]: 7.0% and 8.2%
